Measured values from article PMC7849011, “Defining the Antimalarial Activity of Cipargamin in Healthy Volunteers Experimentally Infected with Blood-Stage Plasmodium falciparum” (Antimicrobial Agents and Chemotherapy, 2021).
Like-named read-outs stand apart in the source and are kept apart here.

Legend:
P. falciparum = settings: IBSM, cited from earlier work
P. falciparum 3D7 = experiment: Induced blood-stage malaria (IBSM) volunteer infection study: parasitemia by 18S rRNA qPCR; format: in vivo, Plasmodium falciparum
Text: A single cohort of eight subjects was inoculated intravenously with P. falciparum 3D7-infected human erythrocytes (approximately 1,800 viable parasites) as previously described ([24]). Parasite growth was monitored by collecting blood samples and performing quantitative PCR (qPCR) targeting the gene encoding P. falciparum 18S rRNA ([25]). […] The dose of cipargamin selected was predicted to be subtherapeutic based on preclinical modeling ([7]) and pharmacokinetic data obtained in previous clinical studies ([8]) and thus chosen to facilitate modeling to estimate the pharmacokinetic/pharmacodynamic relationship. To monitor total parasitemia, blood samples were collected for 18S rRNA qPCR before inoculation, on day 3, twice daily on days 4 to 6, pretreatment on day 7, and 4, 8, 12, 16, 24, 30, and 36 h posttreatment, twice daily from day 9 to day 11, and every 1 to 3 days until day 35. Blood samples for gametocytemia measurements were collected on day 11, every 1 to 3 days between day 15 and day 29, and on day 35. […] Analyses were performed in R version 3.3.0. The PRR and parasite clearance half-life were estimated using the slope of the optimal fit for the log-linear relationship of the parasitemia decay as described previously ([27]).

**Q.** For `Cc1cc(Nc2ccc(S(F)(F)(F)(F)F)cc2)n2nc(C(C)(F)F)nc2n1` [DSM265], which parasite clearance half-life (P. falciparum; 150 mg single dose) is on record?
**A.** 9.4 h

**Q.** With `OC(c1cc(C(F)(F)F)nc2c(C(F)(F)F)cccc12)C1CCCCN1` (centres unmarked) [mefloquine] as the molecule, how does the parasite clearance half-life (P. falciparum; 10 mg/kg single dose) read?
**A.** 6.2 h

**Q.** For `Clc1ccc2c(N3CCN(CCCN4CCN(c5ccnc6cc(Cl)ccc56)CC4)CC3)ccnc2c1` [piperaquine, reference compound], which “clearance of asexual parasite regrowth” value (P. falciparum 3D7; 960 mg single oral dose after regrowth post-cipargamin) is on record?
**A.** successful in clearing asexual parasite regrowth

**Q.** What about the “second parasite regrowth, number of subjects” value (P. falciparum 3D7; after 960 mg piperaquine, 8 subjects) of the same molecule?
**A.** 3 subjects

**Q.** What about the parasite clearance half-life (P. falciparum; 640 mg single dose) of the same molecule?
**A.** 5.22 h
